The format of series [1] is physicochemical. As to conditions: DI water, 25° C., 0.5 mM.
Series [2] is classed as physicochemical. Particulars: SGF with pepsin, pH 1.5, 37° C., 0.5 mM.

Results on eight compounds are retold here after US20250051277A1, “DELIVERY OF THERAPEUTIC ALKALOID COMPOUNDS” (Sensorium Therapeutics, Inc., priority 2021, published 2025).

Structures are written as SMILES. Like-named read-outs stand apart in the source and are kept apart here.

`COc1ccc([C@@]23CCC(=NOc4ccccc4)C[C@@H]2N(C)CC3)cc1OC` [Compound 207, (3aS,7aS)-3a-(3,4-dimethoxyphenyl)-1-methyl-N-phenoxy-2,3,4,5,7,7a-hexahydroindol-6-imine]: the “Condition 2 Conversion (%)” value in series [1] (time 1 min), in series [1] (time 5 min), in series [1] (time 30 min), in series [1] (time 1 h), in series [1] (time 4 h) and in series [1] (time 24 h) was 0% each time. Besides, the “Condition 1 Conversion (%)” value in series [2] (time 1 min) was 0%; in series [2] (time 5 min), 0%; in series [2] (time 30 min), 0%; in series [2] (time 1 h), 0%; in series [2] (time 4 h), 1.5%; in series [2] (time 24 h), 7.9%.
Turning to `COc1ccc([C@@]23CC/C(=N/OC45CC6CC(CC(C6)C4)C5)C[C@@H]2N(C)CC3)cc1OC` [Compound 301, (Z,3aS,7aS)-N-(1-adamantyloxy)-3a-(3,4-dimethoxyphenyl)-1-methyl-2,3,4,5,7,7a-hexahydroindol-6-imine], the “Condition 2 Conversion (%)” value in series [1] (time 1 min), in series [1] (time 5 min), in series [1] (time 30 min), in series [1] (time 1 h), in series [1] (time 4 h) and in series [1] (time 24 h) was 0% each time. In addition, the “Condition 1 Conversion (%)” value in series [2] (time 1 min) came to 0%; in series [2] (time 5 min), 0%; in series [2] (time 30 min), 0%; in series [2] (time 1 h), 0%; in series [2] (time 4 h), 100%; in series [2] (time 24 h), 100%.
On to `COc1ccc([C@@]23CCC(=NNC(=O)Nc4cccnc4)C[C@@H]2N(C)CC3)cc1OC` [Compound 299, 1-[[(3aS,7aS)-3a-(3,4-dimethoxyphenyl)-1-methyl-2,3,4,5,7,7a-hexahydroindol-6-ylidene]amino]-3-(3-pyridyl)urea], for which the “Condition 2 Conversion (%)” value in series [1] (time 1 min) stood at 0%; in series [1] (time 5 min) it was 0%; in series [1] (time 30 min), 0%; in series [1] (time 1 h), 0%; in series [1] (time 4 h), 8%; in series [1] (time 24 h), 13%. Besides, the “Condition 1 Conversion (%)” value is recorded as 53% in series [2] (time 1 min); 100% in series [2] (time 5 min); 100% in series [2] (time 30 min); 100% in series [2] (time 1 h); 100% in series [2] (time 4 h); 100% in series [2] (time 24 h).
With `COc1ccc([C@@]23CCC(=NNC(=O)C45CC6CC(CC(C6)C4)C5)C[C@@H]2N(C)CC3)cc1OC` [Compound 271, N-[[(3aS,7aS)-3a-(3,4-dimethoxyphenyl)-1-methyl-2,3,4,5,7,7a-hexahydroindol-6-ylidene]amino]adamantane-1-carboxamide], the “Condition 2 Conversion (%)” value turned out to be 78.3% in series [1] (time 1 min); 70.3% in series [1] (time 5 min); 82% in series [1] (time 30 min); 85.7% in series [1] (time 1 h); 94.5% in series [1] (time 4 h); 100% in series [1] (time 24 h). The “Condition 1 Conversion (%)” value in series [2] (time 1 min), in series [2] (time 5 min), in series [2] (time 30 min), in series [2] (time 1 h), in series [2] (time 4 h) and in series [2] (time 24 h) was 100% throughout.
Regarding `COc1ccc([C@@]23CCC(=NNc4ccc(Cl)cc4)C[C@@H]2N(C)CC3)cc1OC` [Compound 221, N-[[(3aS,7aS)-3a-(3,4-dimethoxyphenyl)-1-methyl-2,3,4,5,7,7a-hexahydroindol-6-ylidene]amino]-4-chloro-aniline], the “Condition 2 Conversion (%)” value in series [1] (time 1 min), in series [1] (time 5 min), in series [1] (time 30 min), in series [1] (time 1 h), in series [1] (time 4 h) and in series [1] (time 24 h) was 0% in each case. Moreover, the “Condition 1 Conversion (%)” value is 0% in series [2] (time 1 min); 0% in series [2] (time 5 min); 2.9% in series [2] (time 30 min); 3.4% in series [2] (time 1 h); 17.5% in series [2] (time 4 h); 95.1% in series [2] (time 24 h).
As to `COc1ccc([C@@]23CCC(=NOCC(=O)O)C[C@@H]2N(C)CC3)cc1OC` [Compound 201, 2-[[(3aS,7aS)-3a-(3,4-dimethoxyphenyl)-1-methyl-2,3,4,5,7,7a-hexahydroindol-6-ylidene]amino]oxyacetic acid], the “Condition 2 Conversion (%)” value in series [1] (time 1 min), in series [1] (time 5 min), in series [1] (time 30 min), in series [1] (time 1 h), in series [1] (time 4 h) and in series [1] (time 24 h) was 0% throughout. Also, the “Condition 1 Conversion (%)” value in series [2] (time 1 min) is given as 0%; in series [2] (time 5 min), 0%; in series [2] (time 30 min), 0%; in series [2] (time 1 h), 0%; in series [2] (time 4 h), 7.1%; in series [2] (time 24 h) it was 14.7%.
As for `COc1ccc([C@@]23CC/C(=N\NC(=O)NCCc4cccs4)C[C@@H]2N(C)CC3)cc1OC` [Compound 256, 1-[[(3aS,7aS)-3a-(3,4-dimethoxyphenyl)-1-methyl-2,3,4,5,7,7a-hexahydroindol-6-ylidene]amino]-3-[2-(2-thienyl)ethyl]urea], the “Condition 2 Conversion (%)” value is on record as 0% in series [1] (time 1 min); 0% in series [1] (time 5 min); 0% in series [1] (time 30 min); 0% in series [1] (time 1 h); 43% in series [1] (time 4 h); 0% in series [1] (time 24 h). The “Condition 1 Conversion (%)” value came out at 0% in series [2] (time 1 min); 0% in series [2] (time 5 min); 100% in series [2] (time 30 min); 100% in series [2] (time 1 h); 23% in series [2] (time 4 h); 100% in series [2] (time 24 h).
On to `COc1ccc([C@@]23CCC(=NNC(=O)COc4ccccc4)C[C@@H]2N(C)CC3)cc1OC` [Compound 223, N-[[(3aS,7aS)-3a-(3,4-dimethoxyphenyl)-1-methyl-2,3,4,5,7,7a-hexahydroindol-6-ylidene]amino]-2-phenoxy-acetamide], for which the “Condition 2 Conversion (%)” value in series [1] (time 1 min) was 9.8%; in series [1] (time 5 min), 10.4%; in series [1] (time 30 min), 13.5%; in series [1] (time 1 h), 18.5%; in series [1] (time 4 h) it was 50.1%; in series [1] (time 24 h), 81.3%. Besides, the “Condition 1 Conversion (%)” value in series [2] (time 1 min), in series [2] (time 5 min), in series [2] (time 30 min), in series [2] (time 1 h), in series [2] (time 4 h) and in series [2] (time 24 h) was 100% throughout.
